# Measured values taken from patent US5140009A (Tap Pharmaceuticals, Inc., priority 1990, dated 1992).
# Where two headings read alike, the source gives them in different places. Square brackets hold non-standard residues; d marks the D form. Peptide text beside a SMILES is read from it. * marks the point of attachment. Propanoyl(3-(1-naphthyl)) = O=C(CCc1cccc2ccccc12)*; Propanoyl(3-indol-3-yl) = O=C(CCc1c[nH]c2ccccc12)*; Butyryl(4-indol-3-yl) = O=C(CCCc1c[nH]c2ccccc12)*; Propanoyl(3,3-Ph2) = O=C(CC(c1ccccc1)c1ccccc1)*; Acryloyl(3-(pyridin-3-yl)) = O=C(C=Cc1cccnc1)*; Propanoyl(3-(3-pyridyl)) = O=C(CCc1cccnc1)*; Acetyl(1-naphthyl) = O=C(Cc1cccc2ccccc12)*; Acetyl(2-naphthyl) = O=C(Cc1ccc2ccccc2c1)*; Acetyl(3-pyridyl) = O=C(Cc1cccnc1)*; 1Naphthoyl = O=C(c1cccc2ccccc12)*; dCha = N[C@H](CC1CCCCC1)C(=O)O; X14 = O=C(CCn1ccc2ccccc21)*; X1 = COc1ccccc1C=CC(=O)*; PhAc = O=C(Cc1ccccc1)*; X2 = O=C(C=Cc1ccccc1)*; Bn = c1ccc(C*)cc1
# Target: T1, LHRH receptors (Rattus norvegicus, UniProt P30969)
# T1 construct: Pituitary membranes containing LHRH receptors are prepared in batches from quick-frozen rat pituitaries; tissue Hilltop Labs; host or cells: rat pituitary membranes
# T1 sequence (P30969 1-327): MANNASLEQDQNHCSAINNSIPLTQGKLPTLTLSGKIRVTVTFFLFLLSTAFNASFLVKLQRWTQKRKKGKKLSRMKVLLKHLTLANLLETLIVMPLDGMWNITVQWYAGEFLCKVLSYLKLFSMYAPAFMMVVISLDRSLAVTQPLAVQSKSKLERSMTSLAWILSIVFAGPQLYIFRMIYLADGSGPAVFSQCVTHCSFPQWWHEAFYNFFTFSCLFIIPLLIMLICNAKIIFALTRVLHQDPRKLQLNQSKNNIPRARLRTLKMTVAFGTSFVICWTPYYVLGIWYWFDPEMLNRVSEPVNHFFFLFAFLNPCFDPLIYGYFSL
# Experiment: Receptor Binding (radioligand receptor binding assay)
# Settings: table 3, rat pituitary membranes, radioiodinated [D-Leu^6 -des Gly^10 ]-LHRH ethyl amide 50 pM, 2 hours at 4° C.
# [1] = read-out: Receptor Binding pkI (converted)
SMILES,Ki [1],Ki (Receptor Binding pkI)
"CCNC(=O)[C@@H]1CCCN1C(=O)[C@H](CCCNC(=N)N)NC(=O)[C@H](CC(C)C)NC(=O)[C@@H](Cc1c[nH]c2ccccc12)NC(=O)[C@H](Cc1ccc(O)cc1)NC(=O)[C@H](CO)NC(=O)C(Cc1cccc2ccccc12)NC(C)=O (single isomer, unassigned) [Compound 82, (3-9)[N-Ac-1-Nal^3 -D-Trp^6 -Pro^9 NHEt]LHRH]",0.295 nM,–
"CCNC(=O)[C@@H]1CCCN1C(=O)[C@H](CCCNC(=N)N)NC(=O)[C@H](CC(C)C)NC(=O)[C@@H](Cc1c[nH]c2ccccc12)NC(=O)[C@H](Cc1ccc(O)cc1)NC(=O)[C@H](CO)NC(=O)C(Cc1cccc2ccccc12)NC(C)=O (single isomer, unassigned) [Compound 83, (3-9) [N-Ac-1-Nal^3 -D-Trp^6 -Pro^9 NHEt]LHRH]",0.123 nM,–
"CCNC(=O)[C@@H]1CCCN1C(=O)[C@H](CCCNC(=N)N)NC(=O)[C@H](CC(C)C)NC(=O)[C@@H](Cc1c[nH]c2ccccc12)NC(=O)[C@H](Cc1ccc(O)cc1)NC(=O)[C@H](CO)NC(=O)[C@H](Cc1c[nH]c2ccccc12)NC(=O)C(CC(=O)N1CCOCC1)Cc1cccc2ccccc12 (single isomer, unassigned) [Compound 130]",0.275 nM,–
"CCNC(=O)[C@@H]1CCCN1C(=O)[C@H](CCCNC(=N)N)NC(=O)[C@H](CC(C)C)NC(=O)[C@@H](Cc1c[nH]c2ccccc12)NC(=O)[C@H](Cc1ccc(O)cc1)NC(=O)[C@H](CO)NC(=O)[C@H](Cc1c[nH]c2ccccc12)NC(=O)C(CC(=O)N1CCOCC1)Cc1cccc2ccccc12 (single isomer, unassigned) [Compound 131]",0.631 nM,–
"CCNC(=O)[C@@H]1CCCN1C(=O)[C@H](CCCNC(=N)N)NC(=O)[C@H](CC(C)C)NC(=O)[C@@H](Cc1c[nH]c2ccccc12)NC(=O)[C@H](Cc1ccc(O)cc1)NC(=O)[C@H](COCc1ccccc1)NC(=O)Cc1ccc2ccccc2c1 [Compound 12, (4-9)[N-(2-Naphthylacetyl)-Ser^4 (OBzl)-D-Trp^6 -Pro^9 -NHEt]LHRH] ({Acetyl(2-naphthyl)}-S(Bn)Y[dW]LRP-NHEt)",1.23 nM,–
"CCNC(=O)[C@@H]1CCCN1C(=O)[C@H](CCCNC(=N)N)NC(=O)[C@H](CC(C)C)NC(=O)[C@@H](Cc1c[nH]c2ccccc12)NC(=O)[C@H](Cc1ccc(O)cc1)NC(=O)[C@H](CO)NC(=O)CC(c1ccccc1)c1ccccc1 [Compound 14, (4-9)[N-(3-Diphenylpropionyl)-Ser^4 -D-Trp^6 -Pro^9 -NHEt]LHRH] ({Propanoyl(3,3-Ph2)}-SY[dW]LRP-NHEt)",–,15.8 nM
"CCNC(=O)[C@@H]1CCCN1C(=O)[C@H](CCCNC(=N)N)NC(=O)[C@H](CC(C)C)NC(=O)[C@@H](Cc1c[nH]c2ccccc12)NC(=O)[C@H](Cc1ccc(O)cc1)NC(=O)[C@H](CO)NC(=O)C=Cc1ccccc1 [Compound 15, (4-9)[N-(cinnamoyl)-Ser^4 -D-Trp^6 -Pro^9 -NHEt] LHRH] (X2-SY[dW]LRP-NHEt)",7.76 nM,–
"CCNC(=O)[C@@H]1CCCN1C(=O)[C@H](CCCNC(=N)N)NC(=O)[C@H](CC(C)C)NC(=O)[C@@H](Cc1c[nH]c2ccccc12)NC(=O)[C@H](Cc1ccc(O)cc1)NC(=O)[C@H](CO)NC(=O)C=Cc1ccccc1OC [Compound 16, (4-9)[N-(ortho-Methoxycinnamoyl)-Ser^4 -D-Trp^6 -Pro^9 -NHEt]LHRH] (X1-SY[dW]LRP-NHEt)",1.41 nM,–
"CCNC(=O)[C@@H]1CCCN1C(=O)[C@H](CCCNC(=N)N)NC(=O)[C@H](CC(C)C)NC(=O)[C@@H](Cc1c[nH]c2ccccc12)NC(=O)[C@H](Cc1ccc(O)cc1)NC(=O)[C@H](CO)NC(=O)Cc1ccccc1 [Compound 17, (4-9)[N-(Phenylacetyl)-Ser^4 -D-Trp^6 -Pro^9-NHEt] LHRH] (PhAc-SY[dW]LRP-NHEt)",6.61 nM,–
"CCNC(=O)[C@@H]1CCCN1C(=O)[C@H](CCCN=C(N)N)NC(=O)[C@H](CC(C)C)NC(=O)[C@@H](Cc1c[nH]c2ccccc12)NC(=O)[C@H](Cc1ccc(O)cc1)NC(=O)[C@H](CO)NC(=O)CCc1c[nH]c2ccccc12 [Compound 24, (4-9)[N-(3-(3-Indole)propionyl)-Ser^4 -D-Trp^6 -Pro^9 -NHEt] LHRH] ({Propanoyl(3-indol-3-yl)}-SY[dW]LRP-NHEt)",3.72 nM,–
"CCNC(=O)[C@@H]1CCCN1C(=O)[C@H](CCCNC(=N)N)NC(=O)[C@H](CC(C)C)NC(=O)[C@@H](CC1CCCCC1)NC(=O)[C@H](Cc1ccc(O)cc1)NC(=O)[C@H](COCc1ccccc1)NC(=O)Cc1cccc2ccccc12 [Compound 33, (4-9)[N-(1-Naphthylacetyl)-Ser^4 (OBzl)-D-Cha^6 -Pro^9 -NHEt]LHRH] ({Acetyl(1-naphthyl)}-S(Bn)Y[dCha]LRP-NHEt)",13.8 nM,–
"CCNC(=O)[C@@H]1CCCN1C(=O)[C@H](CCCNC(=N)N)NC(=O)[C@H](CC(C)C)NC(=O)[C@@H](CC1CCCCC1)NC(=O)[C@H](Cc1ccc(O)cc1)NC(=O)[C@H](CO)NC(=O)CCn1ccc2ccccc21 [Compound 34, (4-9)[N-(3-(1-Indole)propionyl)-Ser^4 -D-Cha^6 -Pro^9 -NHEt]LHRH] (X14-SY[dCha]LRP-NHEt)",41.7 nM,–
"CCNC(=O)[C@@H]1CCCN1C(=O)[C@H](CCCNC(=N)N)NC(=O)[C@H](CC(C)C)NC(=O)[C@@H](CCCNC(=N)N)NC(=O)[C@H](Cc1ccc(O)cc1)NC(=O)[C@H](CO)NC(=O)CCc1c[nH]c2ccccc12 [Compound 35, (4-9)[N-(3-(3-Indole)propionyl)-Ser^4 -D-Arg^6 -Pro^9 -NHEt]LHRH] ({Propanoyl(3-indol-3-yl)}-SY[dR]LRP-NHEt)",204 nM,–
"CCNC(=O)[C@@H]1CCCN1C(=O)[C@H](CCCNC(=N)N)NC(=O)[C@H](CC(C)C)NC(=O)[C@@H](CC1CCCCC1)NC(=O)[C@H](Cc1ccc(O)cc1)NC(=O)[C@H](CO)NC(=O)CCCc1c[nH]c2ccccc12 [Compound 36, (4-9)[N-(4-(3-Indole)butyryl)-Ser^4 -D-Cha^6 -Pro^9 -NHEt]LHRH] ({Butyryl(4-indol-3-yl)}-SY[dCha]LRP-NHEt)",17 nM,–
"CCNC(=O)[C@@H]1CCCN1C(=O)[C@H](CCCNC(=N)N)NC(=O)[C@H](CC(C)C)NC(=O)[C@@H](CCCNC(=N)N)NC(=O)[C@H](Cc1ccc(O)cc1)NC(=O)[C@H](CO)NC(=O)Cc1cccc2ccccc12 [Compound 37, (4-9)[N-(1-Naphthylacetyl)-Ser^4 -D-Arg^6 -Pro^9 -NHEt] LHRH] ({Acetyl(1-naphthyl)}-SY[dR]LRP-NHEt)",20.4 nM,–
"CCNC(=O)[C@@H]1CCCN1C(=O)[C@H](CCCNC(=N)N)NC(=O)[C@H](CC(C)C)NC(=O)[C@@H](CCCNC(=N)N)NC(=O)[C@H](Cc1ccc(O)cc1)NC(=O)[C@H](COCc1ccccc1)NC(=O)Cc1cccc2ccccc12 [Compound 38, (4-9)[N-(1-Naphthylacetyl)-Ser^4 (OBzl)-D-Arg^6 -Pro^9 -NHEt]LHRH] ({Acetyl(1-naphthyl)}-S(Bn)Y[dR]LRP-NHEt)",28.8 nM,–
"CCNC(=O)[C@@H]1CCCN1C(=O)[C@H](CCCNC(=N)N)NC(=O)[C@H](CC(C)C)NC(=O)[C@@H](CCCNC(=N)N)NC(=O)[C@H](Cc1ccc(O)cc1)NC(=O)[C@H](CO)NC(=O)c1cccc2ccccc12 [Compound 39, (4-9)[N-(1-Naphthoyl)-Ser^4 -D Arg^6 -Pro^9 -NHEt] LHRH] (1Naphthoyl-SY[dR]LRP-NHEt)",117 nM,–
"CCNC(=O)[C@@H]1CCCN1C(=O)[C@H](CCCNC(=N)N)NC(=O)[C@H](CC(C)C)NC(=O)[C@@H](CC(C)C)NC(=O)[C@H](Cc1ccc(O)cc1)NC(=O)[C@H](CO)NC(=O)Cc1cccnc1 [Compound 40, (4-9)[N-(3-Pyridylacetyl)-Ser4-D-Leu^6 -Pro^9 -NHEt] LHRH] ({Acetyl(3-pyridyl)}-SY[dL]LRP-NHEt)",4370 nM,–
"CCNC(=O)[C@@H]1CCCN1C(=O)[C@H](CCCN=C(N)N)NC(=O)[C@H](CC(C)C)NC(=O)[C@@H](CC(C)C)NC(=O)[C@H](Cc1ccc(O)cc1)NC(=O)[C@H](CO)NC(=O)CCc1cccnc1 [Compound 41, (4-9)[N-(3-(3-Pyridyl)propionyl)-Ser^4 -D-Leu^6 -Pro^9 -NHEt]LHRH] ({Propanoyl(3-(3-pyridyl))}-SY[dL]LRP-NHEt)",1740 nM,–
"CCNC(=O)[C@@H]1CCCN1C(=O)[C@H](CCCNC(=N)N)NC(=O)[C@H](CC(C)C)NC(=O)[C@@H](Cc1c[nH]c2ccccc12)NC(=O)[C@H](Cc1ccc(O)cc1)NC(=O)[C@H](CO)NC(=O)C=Cc1cccnc1 [Compound 43, (4-9)[N-(3-(3-Pyridyl)acryloyl)-Ser^4 -D-Trp^6 -Pro^9 -NHEt]LHRH] ({Acryloyl(3-(pyridin-3-yl))}-SY[dW]LRP-NHEt)",646 nM,–
"CCNC(=O)[C@@H]1CCCN1C(=O)[C@H](CCCNC(=N)N)NC(=O)[C@H](CC(C)C)NC(=O)[C@@H](CCCNC(=N)N)NC(=O)[C@H](Cc1ccc(O)cc1)NC(=O)[C@H](CO)NC(=O)CCc1cccc2ccccc12 [Compound 44, (4-9)[N-(3-(1-Naphthyl)propionyl)-Ser^4 -D-Arg^6 -Pro^9 -NHEt]LHRH] ({Propanoyl(3-(1-naphthyl))}-SY[dR]LRP-NHEt)",3.98 nM,–
"CCNC(=O)[C@@H]1CCCN1C(=O)[C@H](CCCNC(=N)N)NC(=O)[C@H](CC(C)C)NC(=O)[C@@H](CCCNC(=N)N)NC(=O)[C@H](Cc1ccc(O)cc1)NC(=O)[C@H](COCc1ccccc1)NC(=O)CCc1cccc2ccccc12 [Compound 45, (4-9)[N-(3-(1-Naphthyl)propionyl)-Ser^4 (OBzl)-D-Arg^6 -Pro^9 -NHEt]LHRH] ({Propanoyl(3-(1-naphthyl))}-S(Bn)Y[dR]LRP-NHEt)",6.03 nM,–
